3 molecules from patent US8937048B2, “Anti-angiogenic compounds” (Covx Technologies Ireland, Limited, priority 2008, dated 2015) can be followed below.

Where a SMILES comes first, the peptide text is derived from it. [ ]: non-standard residue; d: D form. The star is where a group is joined. Phe(4-COOH) = N[C@@H](Cc1ccc(C(=O)O)cc1)C(=O)O; X1 = O=C(COCC(=O)*)Nc1ccc(CCC(=O)N2CCC2=O)cc1

Data set [1] addresses T1, human angiopoietin-2 protein (Homo sapiens, UniProt O15123).
T1 construct: purchased R&D Systems
T1 sequence (O15123 19-496): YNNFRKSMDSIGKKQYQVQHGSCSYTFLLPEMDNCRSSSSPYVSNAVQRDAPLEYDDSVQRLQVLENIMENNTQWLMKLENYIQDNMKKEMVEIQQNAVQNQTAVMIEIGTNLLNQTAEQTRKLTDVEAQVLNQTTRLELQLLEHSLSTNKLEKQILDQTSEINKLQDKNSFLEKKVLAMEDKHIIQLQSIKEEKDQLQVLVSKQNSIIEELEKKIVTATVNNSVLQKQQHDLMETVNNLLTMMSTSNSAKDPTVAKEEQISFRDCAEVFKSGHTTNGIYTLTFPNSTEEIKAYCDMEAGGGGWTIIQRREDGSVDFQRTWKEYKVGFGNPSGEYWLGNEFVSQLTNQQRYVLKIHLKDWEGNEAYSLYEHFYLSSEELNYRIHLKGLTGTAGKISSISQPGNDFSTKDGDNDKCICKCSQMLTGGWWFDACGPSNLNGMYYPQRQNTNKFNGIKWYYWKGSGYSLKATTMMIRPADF
Description: Ang2 competitive ELISA (Ang-2 coated, Tie-2-Fc competition). Format: binding. The procedure: The ability of Ang2 binding compounds to interact with Ang2 was measured by competition with Tie-2. These tests were described in US2008166364 (and also in PCT/IE2007/000110), whose contents are herein incorporated by reference in their entirety. In particular, those portions of PCT/IE2007/000110 and US2008166364 detailing the advantages and disadvantages of various Ang2-binding peptides, and the advantages and disadvantages of covalently linking certain Ang2-binding peptides to catalytic antibodies (and those portions specifically relating to linking to h38C2), as well as the advantages and disadvantages of using specific residues of the respective Ang2-specific peptide as the linking residue (in this context, linking residue meaning the residue covalently linked to the linker (for example as used herein in Example 4)). For competitive ELISA, human angiopoietin-2 protein and Tie-2-Fc (R&D Systems) were reconstituted without carrier protein. Mouse anti-human Tie-2 (Pharmingen) was used as the primary antibody and goat anti-mouse-IgG 1-HRP (Pierce) was used as the secondary antibody. TMB substrate from Pierce was used.
High-binding half-well plates were coated with Ang-2 (100 ng/well) in 50 W PBS and incubated at 4° C. overnight. […] Color development was monitored and stopped with 25 μl of 2 M H2SO4. OD450 nm with a correction wavelength of 540 nm was measured.
For orientation: In an ELISA, binding on a coated surface is turned into a signal by an enzyme label.

Data set [2] can be described thus: Mouse half-life (T 1/2) and screening half-life of Ang2 binding compounds. The class given is in vivo, Swiss Webster mice. As to the method:
For “screening” T ½, test compounds were intravenously administered into male Swiss Webster mice. Blood samples were taken from 4 mice per time point via retroorbital sinus bleed at the following time points: 0.08, 5, and 32 hours. Blood level of test compounds were determined by ELISA. The data were reported as the percentage of test compounds at 32 hours versus 5 min. Normal T ½ was calculated in a similar fashion, after undergoing additional data analysis using WinNonlin version 4.1 (Pharsight Corporation). The data was fit to a model based upon the shape of the curve (i.e. a bi-exponential decline will be fit to a two compartment model, etc.) The criteria for best fit (i.e. lowest % CV) was based on iterative re-weighted least squares.

Data set [3] has as its target T1, human angiopoietin-2 protein. Description: Ang2 reverse competition ELISA (Tie-2-Fc coated). The class given is binding. Conditions: Table 5, column T; read-out: Ang-2 T IC50. The procedure:
Plates were washed three times with washing buffer (0.1% Tween 20, PBS, pH 7.4) and blocked with Superblock, 150 μl/well at RT for 1 hour. Plates were washed three times. […] Plates were washed 3 times, and 50 W of streptavidin HRP (1:200 dilution in Superblock) was added at RT for 20 minutes. […] OD450 nm with a correction wavelength of 540 nm was measured.

As a reminder, the IC50 is the concentration that inhibits the measured activity by half. In data set [1] (Table 6, column P), `CSCC[C@H](NC(=O)[C@H](Cc1ccccc1)NC(=O)[C@H](CCC(N)=O)NC(=O)[C@H](CC(=O)O)NC(=O)[C@H](Cc1ccc(O)cc1)NC(=O)[C@H](CC(C)C)NC(=O)[C@@H](NC(=O)[C@H](CCCCN)NC(=O)[C@H](CC(=O)O)NC(=O)[C@H](CC(C)C)NC(=O)[C@H](CCC(=O)O)NC(=O)[C@H](CC(=O)O)NC(=O)[C@H](CC(C)C)NC(=O)[C@@H]1CCCN1C(=O)[C@H](CCC(N)=O)NC(=O)[C@H](Cc1ccc(O)cc1)NC(=O)[C@H](CCCCN)NC(=O)[C@H](CCC(N)=O)NC(C)=O)[C@@H](C)O)C(=O)N[C@@H](CC(C)C)C(=O)N[C@@H](CCC(N)=O)C(=O)N[C@@H](CCC(N)=O)C(=O)NCC(N)=O` [Compound 4021] showed an IC50 of 36.4 nM.

As usually defined, the half-life is how long it takes for the measured level to halve. With `CSCC[C@H](NC(=O)[C@H](Cc1ccccc1)NC(=O)[C@H](CCC(N)=O)NC(=O)[C@H](CC(=O)O)NC(=O)[C@H](Cc1ccc(C(=O)O)cc1)NC(=O)[C@H](CC(C)C)NC(=O)[C@@H](NC(=O)[C@H](CCCCNC(=O)COCC(=O)Nc1ccc(CCC(=O)N2CCC2=O)cc1)NC(=O)[C@H](CC(=O)O)NC(=O)[C@H](CC(C)C)NC(=O)[C@H](CCC(=O)O)NC(=O)[C@H](CC(=O)O)NC(=O)[C@H](CC(C)C)NC(=O)[C@@H]1CCCN1C(=O)[C@H](CCC(N)=O)NC(=O)[C@H](Cc1ccc(O)cc1)NC(=O)[C@H](CC(N)=O)NC(=O)[C@H](CCC(N)=O)NC(C)=O)[C@@H](C)O)C(=O)N[C@@H](CC(C)C)C(=O)N[C@@H](CCC(N)=O)C(=O)N[C@@H](CCC(N)=O)C(=O)NCC(N)=O` [Compound 4057] (Ac-QNYQPLDELDK(X1)TL[Phe(4-COOH)]DQFMLQQG-NH2), the half-life in data set [2] (mouse, in vivo, Table 5, screening half life (in parentheses), shorter test period, read-out: T ½ (Sc) hours, screening half life) was determined as 11 h.

As for “Q(Kac)Y QPL DEL DK(4P)T LYD QFM LQQ G [Compound 4024]”, the IC50 in data set [1] (Table 5, column P) turned out to be 17.4 nM; in data set [3] it was 207 nM. Besides, in data set [2] (Table 5, half-life (value not in parentheses)), the “T ½ hours” value amounted to 104 h. Moreover, the “T ½ (Sc) hours, screening half life” value in data set [2] (Table 5, screening half life (in parentheses), shorter test period) is reported as “(27) hours”.
